From patent US8624034B2, “Fluoro-pyridinone derivatives useful as antibacterial agents” (Pfizer Inc., priority 2011, dated 2014)
≈ marks a conversion by molar mass, not a printed value. Like-named read-outs stand apart in the source and are kept apart here.

Tests used:
[1] = system: Escherichia coli EC-1: VOGEL, mouse virulent; assay: MIC determination, EC-1; format: cell-based; settings: Escherichia coli, read-out: EC-1 (MIC), Table 3, lower of duplicate values
Outline: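 MIC against mouse-virulent E. coli EC-1 (VOGEL) was determined by CLSI M7-A8 broth dilution with 2-fold drug increments and overnight incubation. The MIC is the lowest concentration with no visible growth versus drug-free control. Tests were run in duplicate and the lower value reported if within 2-fold, with QC organisms and reference drugs in each run.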

[2] = system: Acinetobacter baumannii/haemolyticus, multidrug-resistant clinical isolate (AB-3167); assay: MIC determination, AB-3167; format: cell-based; settings: Table 3, lower of duplicate values
Outline: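 Broth dilution MIC per CLSI M7-A8, 2-fold drug series, overnight incubation, lowest concentration visibly inhibiting growth against drug-free control. Run in duplicate, lower value reported; duplicates differing >2-fold repeated; QC strains and reference compounds required in range.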

[3] = system: PA:UC12120; assay: MIC determination, PA:UC12120 (Table 3); format: cell-based, Pseudomonas aeruginosa; settings: Pseudomonas aeruginosa, UC12120, Table 3, lower of duplicate values
Outline: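 CLSI broth dilution MIC with 2-fold concentration steps, overnight incubation; MIC is the lowest concentration visibly inhibiting growth versus drug-free control. Run in duplicate, lower value reported when within 2-fold; control organisms and reference compounds required within defined ranges.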

[4] = target: T1, Pseudomonas aeruginosa LpxC enzyme (Pseudomonas aeruginosa, UniProt P47205); assay: IC50 assay, LpxC enzyme from P. aeruginosa (PA LpxC enzyme IC50); format: biochemical; settings: LpxC enzyme 0.1 nM, 25° C., 1 hour
T1 construct: made in house; host or cells: E. coli
T1 sequence (P47205 1-303): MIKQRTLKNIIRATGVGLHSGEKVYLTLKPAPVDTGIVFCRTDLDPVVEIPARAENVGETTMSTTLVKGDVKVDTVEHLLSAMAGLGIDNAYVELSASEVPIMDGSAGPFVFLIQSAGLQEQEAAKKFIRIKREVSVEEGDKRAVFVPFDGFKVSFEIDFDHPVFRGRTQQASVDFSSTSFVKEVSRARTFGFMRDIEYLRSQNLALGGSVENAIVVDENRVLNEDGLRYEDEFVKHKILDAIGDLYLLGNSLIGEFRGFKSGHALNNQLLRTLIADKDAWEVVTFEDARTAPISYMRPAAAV
Outline: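 The LpxC reaction ran 1 hour and was stopped with HCl. Substrate-to-product conversion was measured by RapidFire mass spectrometry, and IC50 values were calculated from percent conversion relative to a no-enzyme control.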

In the case of `CC(CCn1cc(F)c(-c2ccc(O)cc2)cc1=O)(C(=O)NO)S(C)(=O)=O` (centres unmarked) [Example 53, 4-[5-fluoro-4-(4-hydroxyphenyl)-2-oxopyridin-1(2H)-yl]-N-hydroxy-2-methyl-2-(methylsulfonyl)butanamide], the MIC [1] is reported as greater than 64 µg/mL, the MIC [2] is reported as greater than 64 µg/mL and the MIC [3] is reported as 64 µg/mL (≈ 161 µM). The IC50 ([4]; Table 3, read-out: PA:IC50) was 4.2 nM.
Compound `COc1ccc(-c2cc(=O)n(CCC(C)(C(=O)NO)S(C)(=O)=O)cc2F)cc1` (centres unmarked) [Example 59, 4-[5-fluoro-4-(4-methoxyphenyl)-2-oxopyridin-1(2H)-yl]-N-hydroxy-2-methyl-2-(methylsulfonyl)butanamide] has an MIC [1] of 1 µg/mL (≈ 2.42 µM), an MIC [2] greater than 64 µg/mL and an MIC [3] of 1 µg/mL (≈ 2.42 µM). For the same compound, the IC50 ([4]; Table 3, read-out: PA:IC50) was 1 nM.
`Cn1cnc2cc(-c3cc(=O)n(CCC(C)(C(=O)NO)S(C)(=O)=O)cc3F)cnc21` (centres unmarked) [Example 71, 4-[5-fluoro-4-(3-methyl-3H-imidazo[4,5-b]pyridin-6-yl)-2-oxopyridin-1(2H)-yl]-N-hydroxy-2-methyl-2-(methylsulfonyl)butanamide] showed an MIC [1] greater than 64 µg/mL, an MIC [2] greater than 64 µg/mL and an MIC [3] greater than 64 µg/mL. The IC50 ([4]; Table 3, read-out: PA:IC50) was greater than 100 nM.
`CC(CCn1cc(F)c(-c2cnc3ccccc3c2)cc1=O)(C(=O)NO)S(C)(=O)=O` (centres unmarked) [Example 87, 4-(5-fluoro-2-oxo-4-quinolin-3-ylpyridin-1(2H)-yl)-N-hydroxy-2-methyl-2-(methylsulfonyl)butanamide] showed an MIC [1] of 16 µg/mL (≈ 36.9 µM), an MIC [2] greater than 64 µg/mL and an MIC [3] of 8 µg/mL (≈ 18.5 µM). For the same compound, the IC50 ([4]; Table 3, read-out: PA:IC50) was 6.1 nM.
In the case of `CC(CCn1cc(F)c(-c2ccccc2)cc1=O)(C(=O)NO)S(C)(=O)=O` (centres unmarked) [Example 78, 4-(5-fluoro-2-oxo-4-phenylpyridin-1(2H)-yl)-N-hydroxy-2-methyl-2-(methylsulfonyl)butanamide], the MIC [1] is reported as 4 µg/mL (≈ 10.5 µM), the MIC [2] is reported as greater than 64 µg/mL and the MIC [3] is reported as 1 µg/mL (≈ 2.61 µM). For the same compound, the IC50 ([4]; PA:IC50, Table 3) was 2.8 nM.
For `CCOc1ccc(-c2cc(=O)n(CCC(C)(C(=O)NO)S(C)(=O)=O)cc2F)cn1` (centres unmarked) [Example 99, 4-(6-ethoxy-5′-fluoro-2′-oxo-3,4′-bipyridin-1′(2′H)-yl)-N-hydroxy-2-methyl-2-(methylsulfonyl)butanamide], the MIC [1] was 2 µg/mL (≈ 4.68 µM), the MIC [2] was greater than 64 µg/mL and the MIC [3] was 2 µg/mL (≈ 4.68 µM). It also gave an IC50 ([4]; Table 3, read-out: PA:IC50) of 2.5 nM.
Compound `CC(CCn1cc(F)c(-c2ccc(CO)nc2)cc1=O)(C(=O)NO)S(C)(=O)=O` (centres unmarked) [Example 85, 4-[5′-fluoro-6-(hydroxymethyl)-2′-oxo-3,4′-bipyridin-1′(2′H)-yl]-N-hydroxy-2-methyl-2-(methylsulfonyl)butanamide] has an MIC [1] greater than 64 µg/mL, an MIC [2] greater than 64 µg/mL and an MIC [3] greater than 64 µg/mL. The IC50 ([4]; Table 3, read-out: PA:IC50) was greater than 100 nM.
`COc1cc(-c2cc(=O)n(CCC(C)(C(=O)NO)S(C)(=O)=O)cc2F)cnc1OC` (centres unmarked) [Example 75, 4-(5′-fluoro-5,6-dimethoxy-2′-oxo-3,4′-bipyridin-1′(2′H)-yl)-N-hydroxy-2-methyl-2-(methylsulfonyl)butanamide] was tested, and the MIC [1] was greater than 64 µg/mL, the MIC [2] was greater than 64 µg/mL and the MIC [3] was greater than 64 µg/mL. The IC50 ([4]; Table 3, read-out: PA:IC50) was 45.4 nM.
